Experimental data taken from paper PMC9582194, “The effect of helix-inducing constraints and downsizing upon a transcription block survival-derived functional cJun antagonist” (Cell Reports. Physical Science, 2022).
Positions of bridges follow the written chain, without caps; N, C: chain ends. Residues, ends and D or L forms follow the SMILES beside them. No end group written: not given here.

Columns and labels:
[1] = Peptide fraction helicity by CD at 222 nm, peptide-only samples; assay type: physicochemical; settings: for fH, peptide fraction helicity: CD signal at 222 nm of peptide-only samples, pH 7.4 phosphate/KF/TCEP buffer, duplicate experiments
Description: (§1) The precise nature of the interaction between the cJun DBD and the rationally designed acidic domain of HW1 is unknown. HW1 was, therefore, iteratively truncated from the N terminus (HW2–6) to investigate the effect on cJun binding and cJun/TRE DNA antagonism (Table 1). Peptide fraction helicity (fH) was determined by quantifying the circular dichroism (CD) signal at 222 nm of peptide-only samples (Figure S1). Thermal denaturation experiments were then used to determine the melting temperature (Tm) of peptide-cJun heterodimers, which serves as an approximate measure of target engagement. CD was also used to investigate the functional activity of peptides in antagonizing the cJun/TRE DNA interaction. […] This provides a clear and direct measurement of the proportion of DNA bound to cJun. As antagonist peptide concentration was increased, the peak shifted to overlay with that of free TRE-DNA (Figure S4). For each peptide, the data were fit to a Hill equation to determine half-maximal inhibitory concentration (IC50) values, specific to these assay conditions, providing a clear comparative measure of antagonism. The same 60 amino acid cJun construct, encompassing the entire bZIP domain, was used for all experiments regardless of antagonist peptide length.

cJun = target: T1, cJun (Homo sapiens, UniProt P05412); assay: CD thermal denaturation of peptide-cJun heterodimers (Tm); assay type: binding; settings: for Tm of peptide-cJun heterodimer: CD ellipticity at 222 nm, 1-90 °C, peptide (5 μM)/cJun (5 μM), 20 mM potassium phosphate, 150 mM potassium fluoride, 2 mM TCEP pH 7.4, two-state fit, duplicate experiments, ± one SD; for ΔTm of cJun heterodimer due to lactamization: cyclized versus its linear (non-lactamized) counterpart
T1 construct: The same 60 amino acid cJun construct, encompassing the entire bZIP domain, was used for all experiments
T1 sequence (P05412 252-315 limits assumed): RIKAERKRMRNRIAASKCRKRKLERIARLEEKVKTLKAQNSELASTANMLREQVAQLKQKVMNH
Description: as §1
Figure 2 Iterative N-terminal truncation of HingeW reduces cJun binding and antagonism (A) Thermal denaturation profiles for iteratively truncated peptide (5 μM)/cJun (5 μM) heterodimer samples. (B) CD antagonism data produced by monitoring the shift in a DNA specific peak to provide a direct readout of cJun-DNA binding. Peptides are added at the indicated concentrations to a pre-incubated mixture of cJun (20 μM) and TRE DNA (5 μM). Data points were averaged from triplicate experiments, and error bars indicate one SD. The data were fitted to a Hill equation to determine IC50 values. Some higher peptide concentration data points for HW6 and HW9 are not shown in this plot for clarity.

[2] = target: T2, cJun (60 amino acid construct encompassing the entire bZIP domain) (UniProt P05412 252-315); assay: cell-based or functional assay
T2 sequence (P05412 252-315): as the sequence (P05412 252-315 limits assumed) above

[3] = target: T2, cJun (60 amino acid construct …); assay: CD thermal denaturation; peptide (5 μM) with cJun (5 μM); ellipticity at 222 nm, 1°C to 90°C; 20 mM potassium phosphate, 150 mM potassium fluoride, 2 mM TCEP, pH 7.4; two-state fit gives the Tm of the peptide-cJun heterodimer; duplicate experiments; settings: both partners purified

## Ac-LVVEEDVLEEEIEQLEEKNKALKDEIEDLQKQLEKLY-NH2 [HW10]
[1]
  fH, peptide fraction helicity: 45.6%
cJun
  Tm of peptide-cJun heterodimer: 64.3 ± 1.3 °C

## Ac-EAEELVVEEDVLEEEIEQLEERNYALRKEIEDL-NH2 [HW9]
[1]
  fH, peptide fraction helicity: 32.8%
cJun
  Tm of peptide-cJun heterodimer: 44.8 ± 1.2 °C

## Ac-EAKELVDEEDVLEEEIEQLEERNYALRKEIEDLQKQ-NH2 [HW20]
[1]
  fH, peptide fraction helicity: 36.9%
cJun
  Tm of peptide-cJun heterodimer: 57.5 ± 1.1 °C

## EDVLEEEIEQLEERNYALRKEIEDLQKQLEKLGAP-NH2 (C-terminus assumed) [HW6]
[1]
  fH, peptide fraction helicity: 38.0%
cJun
  Tm of peptide-cJun heterodimer: 55.1 ± 1.1 °C

## CC[C@H](C)[C@H](NC(=O)[C@H](CCC(=O)O)NC(=O)[C@H](CCCCN)NC(=O)[C@H](CCCNC(=N)N)NC(=O)[C@H](CC(C)C)NC(=O)[C@H](C)NC(=O)[C@H](Cc1ccc(O)cc1)NC(=O)[C@H](CC(N)=O)NC(=O)[C@H](CCCNC(=N)N)NC(=O)[C@H](CCC(=O)O)NC(=O)[C@H](CCC(=O)O)NC(=O)[C@H](CC(C)C)NC(=O)[C@H](CCC(N)=O)NC(=O)[C@H](CCC(=O)O)NC(=O)[C@@H](NC(=O)[C@H](CCC(=O)O)NC(=O)[C@@H]1CC(=O)NCCCC[C@H](NC(=O)[C@H](CCC(=O)O)NC(=O)[C@H](CCC(=O)O)NC(=O)[C@@H](NC(=O)[C@@H](NC(=O)[C@H](CC(C)C)NC(=O)[C@H](CCC(=O)O)NC(=O)[C@H](CCC(=O)O)NC(=O)[C@H](C)NC(=O)[C@H](CCC(=O)O)NC(C)=O)C(C)C)C(C)C)C(=O)N[C@@H](C(C)C)C(=O)N[C@@H](CC(C)C)C(=O)N[C@@H](CCC(=O)O)C(=O)N1)[C@@H](C)CC)C(=O)N[C@@H](CCC(=O)O)C(=O)N[C@@H](CC(=O)O)C(=O)N[C@@H](CC(C)C)C(=O)N[C@@H](CCC(N)=O)C(=O)N[C@@H](CCCCN)C(=O)N[C@@H](CCC(N)=O)C(N)=O [HW23] (Ac-EAEELVVEEKVLEDEIEQLEERNYALRKEIEDLQKQ-NH2; lactam 10-14)
cJun
  ΔTm of cJun heterodimer due to lactamization: ~9 °C

## Ac-KEAEDLVVEEDVLEEEIEQLEERNYALRKEIKDLQDQ-NH2 [HW18]
[1]
  fH, peptide fraction helicity: 38.7%
cJun
  Tm of peptide-cJun heterodimer: 56.5 ± 1.6 °C

## CC[C@H](C)[C@H](NC(=O)[C@H](CCC(=O)O)NC(=O)[C@H](CCCCN)NC(=O)[C@H](CCCNC(=N)N)NC(=O)[C@H](CC(C)C)NC(=O)[C@H](C)NC(=O)[C@H](Cc1ccc(O)cc1)NC(=O)[C@H](CC(N)=O)NC(=O)[C@H](CCCNC(=N)N)NC(=O)[C@H](CCC(=O)O)NC(=O)[C@H](CCC(=O)O)NC(=O)[C@H](CC(C)C)NC(=O)[C@H](CCC(N)=O)NC(=O)[C@H](CCC(=O)O)NC(=O)[C@@H](NC(=O)[C@H](CCC(=O)O)NC(=O)[C@H](CCC(=O)O)NC(=O)[C@H](CCC(=O)O)NC(=O)[C@H](CC(C)C)NC(=O)[C@@H](NC(=O)[C@H](CC(=O)O)NC(=O)[C@H](CCC(=O)O)NC(=O)[C@H](CCC(=O)O)NC(=O)[C@@H]1CC(=O)NCCCC[C@H](NC(=O)[C@H](C)NC(=O)[C@H](CCC(=O)O)NC(C)=O)C(=O)N[C@@H](CCC(=O)O)C(=O)N[C@@H](CC(C)C)C(=O)N[C@@H](C(C)C)C(=O)N1)C(C)C)[C@@H](C)CC)C(=O)N[C@@H](CCC(=O)O)C(=O)N[C@@H](CC(=O)O)C(=O)N[C@@H](CC(C)C)C(=O)N[C@@H](CCC(N)=O)C(=O)N[C@@H](CCCCN)C(=O)N[C@@H](CCC(N)=O)C(N)=O [HW21] (Ac-EAKELVDEEDVLEEEIEQLEERNYALRKEIEDLQKQ-NH2; lactam 3-7)
cJun
  ΔTm of cJun heterodimer due to lactamization: ~2 °C

## Ac-LEKEAEELVVEEDVLEEEIEQLEERNYALRKEIEDLQKQLEKL-NH2 [HW3]
[1]
  fH, peptide fraction helicity: 38.3%
cJun
  Tm of peptide-cJun heterodimer: 67.9 ± 0.9 °C

## Ac-LARENEELEKEAEELVVEEDVLEEEIEQLEERNYALRKEIEDLQKQLEKL-NH2 [HW2]
[1]
  fH, peptide fraction helicity: 32.8%
cJun
  Tm of peptide-cJun heterodimer: 68.5 ± 1.1 °C

## Ac-LVVEEDVLEEEIEQLEERNYALRKEIEDLQKQLEDL-NH2 [HW12]
[1]
  fH, peptide fraction helicity: 43.0%
cJun
  Tm of peptide-cJun heterodimer: 62.1 ± 1.4 °C

## Ac-EAEELVVEEDVLEEEIEQLEERNYALRKEIEDLQ-NH2 [HW16]
[1]
  fH, peptide fraction helicity: 31.2%
cJun
  Tm of peptide-cJun heterodimer: 53.8 ± 5.3 °C

## Ac-EAEELVVEEDVLEEEIEQLEERNYALRKEIKDLQDQ-NH2 [HW28]
[1]
  fH, peptide fraction helicity: 35.0%
cJun
  Tm of peptide-cJun heterodimer: 55.6 ± 1.2 °C

## Ac-EAEELVVEEKVLEDEIEQLEERNYALRKEIEDLQKQ-NH2 [HW22]
[1]
  fH, peptide fraction helicity: 37.2%
cJun
  Tm of peptide-cJun heterodimer: 54.9 ± 1.2 °C

## Ac-EAEELVVEEDVLEEEIEQLEEKNKALKDEIEDLQKQY-NH2 [HW26]
[1]
  fH, peptide fraction helicity: 36.0%
cJun
  Tm of peptide-cJun heterodimer: 56.2 ± 1.3 °C

## Ac-EAEELVVEEDVLEEEIKQLEDRNYALRKEIEDLQKQ-NH2 [HW24]
[1]
  fH, peptide fraction helicity: 37.0%
cJun
  Tm of peptide-cJun heterodimer: 55.5 ± 1.7 °C

## CC[C@H](C)[C@H](NC(=O)[C@H](CCC(=O)O)NC(=O)[C@H](CCCCN)NC(=O)[C@H](CCCNC(=N)N)NC(=O)[C@H](CC(C)C)NC(=O)[C@H](C)NC(=O)[C@H](Cc1ccc(O)cc1)NC(=O)[C@H](CC(N)=O)NC(=O)[C@H](CCCNC(=N)N)NC(=O)[C@H](CCC(=O)O)NC(=O)[C@H](CCC(=O)O)NC(=O)[C@H](CC(C)C)NC(=O)[C@H](CCC(N)=O)NC(=O)[C@H](CCC(=O)O)NC(=O)[C@@H](NC(=O)[C@H](CCC(=O)O)NC(=O)[C@H](CCC(=O)O)NC(=O)[C@H](CCC(=O)O)NC(=O)[C@H](CC(C)C)NC(=O)[C@@H](NC(=O)[C@H](CC(=O)O)NC(=O)[C@H](CCC(=O)O)NC(=O)[C@H](CCC(=O)O)NC(=O)[C@@H](NC(=O)[C@@H](NC(=O)[C@H](CC(C)C)NC(=O)[C@@H]1CC(=O)NCCCC[C@H](NC(C)=O)C(=O)N[C@@H](CCC(=O)O)C(=O)N[C@@H](C)C(=O)N[C@@H](CCC(=O)O)C(=O)N1)C(C)C)C(C)C)C(C)C)[C@@H](C)CC)C(=O)N[C@@H](CCCCN)C(=O)N[C@@H](CC(=O)O)C(=O)N[C@@H](CC(C)C)C(=O)N[C@@H](CCC(N)=O)C(=O)N[C@@H](CC(=O)O)C(=O)N[C@@H](CCC(N)=O)C(N)=O [HW19] (Ac-KEAEDLVVEEDVLEEEIEQLEERNYALRKEIKDLQDQ-NH2; lactam 1-5 (inferred))
[1]
  fH, peptide fraction helicity: 40.1%
[1]; cyclized versus its linear counterpart
  change in fH due to lactamization: ~1%
cJun
  Tm of peptide-cJun heterodimer: 58.5 ± 1.0 °C

B1: HW3 (peptide)
peptide: Ac-LEKEAEELVVEEDVLEEEIEQLEERNYALRKEIEDLQKQLEKL-NH2
notes: truncation NΔ17 CΔ3 of HW1; source: synthetic peptide (Fmoc SPPS, RP-HPLC purified)
[2]
  IC50 CD: peptide added to pre-incubated cJun (20 μM) and TRE DNA (5 μM); blocks cJun/TRE DNA binding: 33.7 µM
[3]
  Tm of the peptide-cJun heterodimer: 67.9 °C

B2: HW27 (peptide)
peptide: Ac-EAEELVVEEDVLEEEIEQLEEKNKALKDEIEDLQKQY-NH2
modifications: lactam 24-28
SMILES: CC[C@H](C)[C@H](NC(=O)[C@H](CCC(=O)O)NC(=O)[C@@H]1CC(=O)NCCCC[C@H](NC(=O)[C@H](CC(N)=O)NC(=O)[C@H](CCCCN)NC(=O)[C@H](CCC(=O)O)NC(=O)[C@H](CCC(=O)O)NC(=O)[C@H](CC(C)C)NC(=O)[C@H](CCC(N)=O)NC(=O)[C@H](CCC(=O)O)NC(=O)[C@@H](NC(=O)[C@H](CCC(=O)O)NC(=O)[C@H](CCC(=O)O)NC(=O)[C@H](CCC(=O)O)NC(=O)[C@H](CC(C)C)NC(=O)[C@@H](NC(=O)[C@H](CC(=O)O)NC(=O)[C@H](CCC(=O)O)NC(=O)[C@H](CCC(=O)O)NC(=O)[C@@H](NC(=O)[C@@H](NC(=O)[C@H](CC(C)C)NC(=O)[C@H](CCC(=O)O)NC(=O)[C@H](CCC(=O)O)NC(=O)[C@H](C)NC(=O)[C@H](CCC(=O)O)NC(C)=O)C(C)C)C(C)C)C(C)C)[C@@H](C)CC)C(=O)N[C@@H](C)C(=O)N[C@@H](CC(C)C)C(=O)N[C@@H](CCCCN)C(=O)N1)C(=O)N[C@@H](CCC(=O)O)C(=O)N[C@@H](CC(=O)O)C(=O)N[C@@H](CC(C)C)C(=O)N[C@@H](CCC(N)=O)C(=O)N[C@@H](CCCCN)C(=O)N[C@@H](CCC(N)=O)C(=O)N[C@@H](Cc1ccc(O)cc1)C(N)=O
notes: cyclized form of the pair HW26/HW27; NΔ20 CΔ7; source: synthetic peptide (Fmoc SPPS, on-resin lactamization, RP-HPLC purified)
[2]
  IC50 CD: peptide added to pre-incubated cJun (20 μM) and TRE DNA (5 μM); blocks cJun/TRE DNA binding: 94.1 µM
[3]
  Tm of the peptide-cJun heterodimer: 58.9 °C

B3: HW6 (peptide)
peptide: EDVLEEEIEQLEERNYALRKEIEDLQKQLEKLGAP-NH2
notes: truncation NΔ28 of HW1: the leucine zipper (LZ) only; also called LZ domain of HW1; source: synthetic peptide (Fmoc SPPS, RP-HPLC purified)
[2]
  IC50 CD: peptide added to pre-incubated cJun (20 μM) and TRE DNA (5 μM); blocks cJun/TRE DNA binding: 130 µM
[3]
  Tm of the peptide-cJun heterodimer: 55.1 °C

B4: HW9 (peptide)
peptide: Ac-EAEELVVEEDVLEEEIEQLEERNYALRKEIEDL-NH2
notes: truncation NΔ20 CΔ10 of HW1; source: synthetic peptide (Fmoc SPPS, RP-HPLC purified)
[2]
  IC50 CD: peptide added to pre-incubated cJun (20 μM) and TRE DNA (5 μM); blocks cJun/TRE DNA binding: 1210 µM
[3]
  Tm of the peptide-cJun heterodimer: 44.8 °C
